# Test results from patent EP4574151A1, “INHIBITORS OF G12V-MUTATED RAS PROTEIN TO TREAT CANCER” (Personather Spolka Z Ograniczona Odpowiedzialnoscia, priority 2023, dated 2025).
# What was measured:
# BALB/c mice = assay: Acute toxicity after oral administration (Acute Toxicity test TG425); format: in vivo; settings: female BALB/c mice, oral by gastric probe, 40 mg of substance in corn oil, three mice, observed two weeks
# From the text: The study was planned according to Acute Toxicity Test 425 (oral administration) - higher-lower-dose procedure, in accordance with the OECD regulation of October 3, 2008. The test procedure described in these guidelines is useful in minimizing the number of animals needed to estimate the acute toxicity after oral administration of potential drugs. In addition to the LD50 assessment and confidence intervals, the test allows for the observation of signs of toxicity. For this purpose, an experiment was agreed upon with the Local Ethics Committee for Animal Experimentation, using BALB/c mice. The TG425 method allows for the estimation of LD50 values with confidence intervals, and the results allow for the classification of substances according to the global harmonized system for the classification of chemicals that cause acute toxicity.
# A sequential test, utilizing a maximum of 5 animals, was applied, which is known as the limit test. A test dose of either 2000 or uniquely 5000 mg/kg can be used. The testing procedures at 2000 and 5000 mg/kg differ slightly (see Sections 23-25 for the limit test at 2000 mg/kg and Sections 26-30 for the limit test at 5000 mg/kg). The selection of a sequential testing plan increases the statistical power, and a deliberate deviation from the limit test rejection procedure was made for compounds with an LD50 near the limit dose; i.e. committing an error on the side of caution. As with any limit test protocol, the probability of correct compound classification will decrease, as the actual LD50 value more closely resembles the limit dose.
# • 1. Female Balb/c mice, which were 50-56 days postpartum, were used for the purposes of this experiment. • 2. Mice underwent a 1-week quarantine after being transported to the laboratory. • 3. The studied molecules (PER154A, PER160A, PER170A, PER176A) were suspended according to the TG425 protocol, i.e. 40 mg of substance in […] of laboratory corn oil and orally administered through a plastic gastro probe (used: 20ga (0.9 mm OD x 0.5 mm ID), 38 mm), which was suitable for the size of the animal (17-21 g). The mice were observed and weighed almost daily. • 4. Mouse housing conditions: up to 4 mice per cage; temperature: 23.2 - 23.40°C; humidity: 27.6 - 40.9% relative humidity. • 5. Two weeks later (time counted separately for each mouse), a resection was performed to analyze internal organs for any abnormalities.
# [1] = test system: SW620 cells (with RASG12V mutation); assay: Crystal violet cytotoxicity test (IC50) in KRASG12V positive cells; format: cell-based; settings: for toxicity towards KRASG12V positive cells (SW620) compared to normal cells (NIH/3T3): ratio from IC50 values, crystal violet test, 72 hours incubation; for toxicity against cancer cells expressing KRASG12V: summary statement
# From the text: IC50 (half-maximal inhibitory concentration) is the concentration value of a tested compound which inhibits biochemical and biological functions of cells in half of the tested population. Determining this indicator is extremely important for assessing the cytotoxicity of molecules with therapeutic potential.
# The first step in developing the methodology for determining IC50 was to conduct density tests to determine the appropriate number of cells to use in cytotoxicity tests. The different content of bovine fetal serum in the culture medium was also investigated to rule out any potential impact on the reduction in cell count, regardless of the analyzed molecules.
# As a research model, colon cancer and lung cancer cell lines (sensitive lines) were used, including SW620, SW480, and COR-L23, respectively, which are characterized by the KRASG12V gene mutation and lack of other alterations in genes belonging to the RAS protein signaling pathway, as well as a stable line of normal cells (mouse fibroblasts), which serve as a platform for evaluating the impact of tested compounds on non-cancer cells. Below is the result for one of the analyzed cell lines with the mutation. Similar differences in IC50 values compared to normal cells were obtained for the other cell lines mentioned above with the RASG12V mutation.
# The effect of molecules on the biology of selected cell lines to assess their cytotoxicity using the IC50 indicator was carried out according to the protocol below: • 1. The cells of the tested lines were seeded in wells of a 96-well plate at specified densities. • 2. After seeding, the cells were subjected to a 24-hour incubation in medium with a 1% and 2.5% addition of serum (sensitive lines) or in medium with a 0.5% addition of serum (normal line). • 3. The cells were exposed to selected molecules at selected concentrations. The control was provided by the culture medium without any added compounds. Concentrations of the tested molecules [uM]: • □ NIH3T3: 500; 250; 125; 62,5; 31,25 • □ SW620: 60; 30; 15; 7,5; 3,75 • 4. After 72 hours of incubation, the culture medium was removed and the cells were washed twice with buffer saline solution (PBS). Then, the cells were incubated for 10 minutes with a 0.1% solution of crystal violet at room temperature (Merck Millipore). • 5. After 10 minutes, the crystal violet solution was removed and the wells of the 96-well plate were washed twice with PBS solution. • 4. 50% ice-cold acetic acid solution was added to each well and incubated again for 10 minutes at room temperature on a shaker at 650 rpm. • 5. Absorbance measurement was performed using a plate reader, at a wavelength of λ = 540 nm
smiles,measurement,setting,value
O=C(Nc1ccc2c(c1)OCCO2)c1ccc2c(c1)C1C3CCC(C3)C1C(c1ccccc1)N2 (stereo not drawn) [PER154A],safety in acute oral toxicity test,BALB/c mice,safe and safe for mice
same,toxicity towards KRASG12V positive cells (SW620) compared to normal cells (NIH/3T3),[1],about 85 times
same,toxicity against cancer cells expressing KRASG12V,[1],toxicity
O=C(Nc1ccc(F)cc1)c1ccc2c(c1)C1C3CCC(C3)C1C(c1ccccc1)N2 (stereo not drawn) [PER160A],safety in acute oral toxicity test,BALB/c mice,safe for mice
same,toxicity towards KRASG12V positive cells (SW620) compared to normal cells (NIH/3T3),[1],over 36 times
same,toxicity against cancer cells expressing KRASG12V,[1],toxicity
